In the NIST ThermoML archive (doi:10.1021/je060271a):
Values joined by “and” are separate entries in the source; they are usually repeats but may differ in a detail not shown here. Equal entries are not always repeated. Numbers after ± are expanded uncertainties.

Details: 343.15 K, Liquid, Vibrating tube method

CCCCCCC(=O)OCC(COC(=O)CCCCCC)(COC(=O)CCCCCC)COC(=O)CCCCCC [pentaerythritol tetraheptanoate]
Details	mass density
23684 kPa	957.2 ± 1.2 kg/m3
23715 kPa	957.3 ± 1.2 kg/m3
23750 kPa	957.4 ± 1.2 kg/m3
23753 kPa	957.2 ± 1.2 kg/m3
23785 kPa	957.4 ± 1.2 kg/m3
23818 kPa	957.3 ± 1.2 kg/m3
23850 kPa	957.4 ± 1.2 kg/m3
23889 kPa	957.4 ± 1.2 kg/m3
23920 kPa	957.3 ± 1.2 kg/m3
23952 kPa	957.4 ± 1.2 kg/m3
23991 kPa	957.4 ± 1.2 kg/m3
24024 kPa	957.5 ± 1.2 kg/m3
24056 kPa	957.6 ± 1.2 kg/m3
24094 kPa	957.5 ± 1.2 kg/m3
24127 kPa	957.6 ± 1.2 kg/m3
24128 kPa	957.6 ± 1.2 kg/m3
24160 kPa	957.5 ± 1.2 kg/m3
24199 kPa	957.7 ± 1.2 kg/m3
24200 kPa	957.5 ± 1.2 kg/m3
24232 kPa	957.6 ± 1.2 kg/m3
24233 kPa	957.6 ± 1.2 kg/m3
24265 kPa	957.6 ± 1.2 kg/m3
24266 kPa	957.8 ± 1.2 kg/m3
24299 kPa	957.6 ± 1.2 kg/m3
24306 kPa	957.6 ± 1.2 kg/m3
24334 kPa	957.8 ± 1.2 kg/m3
24339 kPa	957.7 ± 1.2 kg/m3
24372 kPa	957.7 ± 1.2 kg/m3
24373 kPa	957.8 ± 1.2 kg/m3
24407 kPa	957.7 ± 1.2 kg/m3
24411 kPa	957.8 ± 1.2 kg/m3
24440 kPa	957.7 ± 1.2 kg/m3
24445 kPa	957.8 ± 1.2 kg/m3
24478 kPa	957.8 ± 1.2 kg/m3
24480 kPa	957.8 ± 1.2 kg/m3
24513 kPa	957.8 ± 1.2 kg/m3
24519 kPa	957.7 ± 1.2 kg/m3
24552 kPa	957.7 ± 1.2 kg/m3
24554 kPa	957.8 ± 1.2 kg/m3
24586 kPa	957.9 ± 1.2 kg/m3
24621 kPa	958 ± 1.2 kg/m3
24626 kPa	957.9 ± 1.2 kg/m3
24661 kPa	957.9 ± 1.2 kg/m3
24696 kPa	957.9 ± 1.2 kg/m3
24737 kPa	957.9 ± 1.2 kg/m3
24771 kPa	957.9 ± 1.2 kg/m3
24806 kPa	957.9 ± 1.2 kg/m3
24840 kPa	958 ± 1.2 kg/m3
24882 kPa	958 ± 1.2 kg/m3
24916 kPa	958.1 ± 1.2 kg/m3
24917 kPa	958.1 ± 1.2 kg/m3
24952 kPa	958.1 ± 1.2 kg/m3 and 958.2 ± 1.2 kg/m3
24988 kPa	958.2 ± 1.2 kg/m3
24993 kPa	958.1 ± 1.2 kg/m3
25028 kPa	958.2 ± 1.2 kg/m3
25070 kPa	958.2 ± 1.2 kg/m3
25105 kPa	958.1 ± 1.2 kg/m3
25141 kPa	958.2 ± 1.2 kg/m3
25148 kPa	958.1 ± 1.2 kg/m3
25184 kPa	958.3 ± 1.2 kg/m3
25220 kPa	958.2 ± 1.2 kg/m3
25250 kPa	958.4 ± 1.2 kg/m3
25256 kPa	958.1 ± 1.2 kg/m3
25279 kPa	958.4 ± 1.2 kg/m3
25292 kPa	958.2 ± 1.2 kg/m3
25308 kPa	958.3 ± 1.2 kg/m3
25336 kPa	958.4 ± 1.2 kg/m3
25343 kPa	958.5 ± 1.2 kg/m3
25372 kPa	958.2 ± 1.2 kg/m3 and 958.5 ± 1.2 kg/m3
25402 kPa	958.5 ± 1.2 kg/m3
25415 kPa	958.3 ± 1.2 kg/m3
25452 kPa	958.3 ± 1.2 kg/m3
25488 kPa	958.3 ± 1.2 kg/m3
25525 kPa	958.4 ± 1.2 kg/m3
25530 kPa	958.5 ± 1.2 kg/m3
25560 kPa	958.5 ± 1.2 kg/m3
25570 kPa	958.4 ± 1.2 kg/m3
25590 kPa	958.5 ± 1.2 kg/m3
25607 kPa	958.6 ± 1.2 kg/m3
25626 kPa	958.5 ± 1.2 kg/m3
25645 kPa	958.4 ± 1.2 kg/m3
25656 kPa	958.6 ± 1.2 kg/m3
25687 kPa	958.6 ± 1.2 kg/m3
25692 kPa	958.5 ± 1.2 kg/m3
25723 kPa	958.6 ± 1.2 kg/m3
25730 kPa	958.5 ± 1.2 kg/m3
25752 kPa	958.6 ± 1.2 kg/m3
25767 kPa	958.6 ± 1.2 kg/m3
25788 kPa	958.7 ± 1.2 kg/m3
25805 kPa	958.7 ± 1.2 kg/m3
25819 kPa	958.6 ± 1.2 kg/m3
25843 kPa	958.6 ± 1.2 kg/m3
25849 kPa	958.6 ± 1.2 kg/m3
25885 kPa	958.7 ± 1.2 kg/m3
25888 kPa	958.5 ± 1.2 kg/m3
25915 kPa	958.7 ± 1.2 kg/m3
25927 kPa	958.6 ± 1.2 kg/m3
25946 kPa	958.8 ± 1.2 kg/m3
25966 kPa	958.7 ± 1.2 kg/m3
25983 kPa	958.8 ± 1.2 kg/m3
26012 kPa	958.8 ± 1.2 kg/m3
26014 kPa	958.9 ± 1.2 kg/m3
26045 kPa	958.9 ± 1.2 kg/m3
26050 kPa	958.8 ± 1.2 kg/m3
26082 kPa	958.8 ± 1.2 kg/m3
26090 kPa	958.7 ± 1.2 kg/m3
26114 kPa	958.9 ± 1.2 kg/m3
26136 kPa	958.8 ± 1.2 kg/m3
26145 kPa	958.8 ± 1.2 kg/m3
26176 kPa	958.9 ± 1.2 kg/m3 and 958.8 ± 1.2 kg/m3
26214 kPa	958.9 ± 1.2 kg/m3
26217 kPa	958.9 ± 1.2 kg/m3
26244 kPa	959 ± 1.2 kg/m3
26256 kPa	958.9 ± 1.2 kg/m3
26282 kPa	958.9 ± 1.2 kg/m3
26296 kPa	959 ± 1.2 kg/m3
26313 kPa	959 ± 1.2 kg/m3
26343 kPa	958.9 ± 1.2 kg/m3
26345 kPa	959 ± 1.2 kg/m3
26383 kPa	959 ± 1.2 kg/m3 and 959.1 ± 1.2 kg/m3
26414 kPa	958.9 ± 1.2 kg/m3
26430 kPa	959 ± 1.2 kg/m3
26447 kPa	959 ± 1.2 kg/m3
26470 kPa	959 ± 1.2 kg/m3
26485 kPa	959.1 ± 1.2 kg/m3
26510 kPa	959 ± 1.2 kg/m3
26518 kPa	959.2 ± 1.2 kg/m3
26549 kPa	959.1 ± 1.2 kg/m3
26550 kPa	959.2 ± 1.2 kg/m3
26583 kPa	959.2 ± 1.2 kg/m3
26597 kPa	959.3 ± 1.2 kg/m3
26622 kPa	959.1 ± 1.2 kg/m3
26638 kPa	959.2 ± 1.2 kg/m3
26654 kPa	959.2 ± 1.2 kg/m3
26679 kPa	959.1 ± 1.2 kg/m3
26693 kPa	959.1 ± 1.2 kg/m3
26725 kPa	959.3 ± 1.2 kg/m3
26729 kPa	959.2 ± 1.2 kg/m3
26758 kPa	959.2 ± 1.2 kg/m3
26771 kPa	959.3 ± 1.2 kg/m3
26791 kPa	959.3 ± 1.2 kg/m3
26812 kPa	959.3 ± 1.2 kg/m3
26831 kPa	959.4 ± 1.2 kg/m3
26863 kPa	959.2 ± 1.2 kg/m3
26864 kPa	959.3 ± 1.2 kg/m3
26898 kPa	959.4 ± 1.2 kg/m3
26905 kPa	959.3 ± 1.2 kg/m3
26939 kPa	959.3 ± 1.2 kg/m3
26949 kPa	959.3 ± 1.2 kg/m3
26999 kPa	959.3 ± 1.2 kg/m3
27006 kPa	959.3 ± 1.2 kg/m3
27037 kPa	959.4 ± 1.2 kg/m3
27071 kPa	959.4 ± 1.2 kg/m3
27081 kPa	959.5 ± 1.2 kg/m3
27111 kPa	959.5 ± 1.2 kg/m3
27114 kPa	959.5 ± 1.2 kg/m3
27145 kPa	959.5 ± 1.2 kg/m3
27148 kPa	959.5 ± 1.2 kg/m3
27186 kPa	959.5 ± 1.2 kg/m3
27189 kPa	959.6 ± 1.2 kg/m3
27221 kPa	959.5 ± 1.2 kg/m3
27224 kPa	959.6 ± 1.2 kg/m3
27256 kPa	959.5 ± 1.2 kg/m3
27258 kPa	959.6 ± 1.2 kg/m3
27290 kPa	959.6 ± 1.2 kg/m3
27300 kPa	959.5 ± 1.2 kg/m3
27332 kPa	959.6 ± 1.2 kg/m3
27335 kPa	959.7 ± 1.2 kg/m3
27367 kPa	959.7 ± 1.2 kg/m3
27371 kPa	959.6 ± 1.2 kg/m3
27402 kPa	959.6 ± 1.2 kg/m3
27408 kPa	959.7 ± 1.2 kg/m3
27444 kPa	959.6 ± 1.2 kg/m3
27447 kPa	959.7 ± 1.2 kg/m3
27479 kPa	959.7 ± 1.2 kg/m3
27514 kPa	959.7 ± 1.2 kg/m3
27556 kPa	959.7 ± 1.2 kg/m3
27590 kPa	959.8 ± 1.2 kg/m3
27592 kPa	959.8 ± 1.2 kg/m3
27618 kPa	959.8 ± 1.2 kg/m3
27627 kPa	959.8 ± 1.2 kg/m3
27670 kPa	959.9 ± 1.2 kg/m3
27698 kPa	959.7 ± 1.2 kg/m3
27742 kPa	959.8 ± 1.2 kg/m3
27786 kPa	959.9 ± 1.2 kg/m3
27822 kPa	959.8 ± 1.2 kg/m3
27858 kPa	959.9 ± 1.5 kg/m3
27877 kPa	959.9 ± 1.2 kg/m3
27902 kPa	960.1 ± 1.2 kg/m3
27910 kPa	960 ± 1.2 kg/m3
27939 kPa	960 ± 1.2 kg/m3
27975 kPa	959.9 ± 1.2 kg/m3
28012 kPa	959.9 ± 1.2 kg/m3
28056 kPa	960 ± 1.2 kg/m3
28087 kPa	960.2 ± 1.2 kg/m3
28093 kPa	960 ± 1.2 kg/m3
28116 kPa	960.2 ± 1.2 kg/m3
28137 kPa	960.1 ± 1.2 kg/m3
28144 kPa	960.1 ± 1.2 kg/m3
28175 kPa	960.1 ± 1.2 kg/m3
28178 kPa	960.2 ± 1.2 kg/m3
28207 kPa	960.1 ± 1.2 kg/m3
28213 kPa	960.2 ± 1.2 kg/m3
28236 kPa	960.1 ± 1.2 kg/m3
28251 kPa	960.2 ± 1.2 kg/m3
28269 kPa	960.2 ± 1.2 kg/m3
28288 kPa	960.2 ± 1.2 kg/m3
28298 kPa	960.3 ± 1.2 kg/m3
28327 kPa	960.2 ± 1.2 kg/m3
28333 kPa	960.2 ± 1.2 kg/m3
28361 kPa	960.4 ± 1.2 kg/m3
28370 kPa	960.2 ± 1.2 kg/m3
28389 kPa	960.3 ± 1.2 kg/m3
28416 kPa	960.3 ± 1.2 kg/m3
28418 kPa	960.3 ± 1.2 kg/m3
28453 kPa	960.3 ± 1.2 kg/m3
28454 kPa	960.3 ± 1.2 kg/m3
28476 kPa	960.5 ± 1.2 kg/m3
28492 kPa	960.3 ± 1.2 kg/m3
28511 kPa	960.3 ± 1.2 kg/m3
28538 kPa	960.4 ± 1.2 kg/m3
28540 kPa	960.4 ± 1.2 kg/m3
28576 kPa	960.4 ± 1.2 kg/m3
28605 kPa	960.4 ± 1.2 kg/m3
